One assay deals with MAPK phosphorylation. Briefly: MAPK cell-based phosphorylation assay (ELISA or Western), PANC-1. Conditions: Homo sapiens. As to the method:
Cell lines: Tumor-derived pancreatic cancer cell line PANC-1 was purchased from ATCC and were and grown in DMEM-High Glucose supplemented with penicillin (100 U/mL), streptomycin (100 μg/mL), and 10% heat-inactivated FBS at 37° C. in a humidified incubator with 5% CO2.
Method: Cells were plated at 7500 cells/well density in a 96-well plate, allowed 3 hours to adhere to the plate, then starved in DMEM plus 0.5% FBS overnight. The small molecules to be tested were added to the cells in the final concentration of 10 μM in the presence of 0.3% DMSO for 6 hours incubation at 37° C. For IC50 value determination, serial dilutions of compounds were added to cells under the same conditions. Next, cells were stimulated with 1.5 ng/mL EGF for 15 minutes followed by cell fixation with 4% formaldehyde in PBS at room temperature for 20 minutes. Cell-direct ELISA determined phosphorylation level of MAPK.
Cell-direct ELISA: For each well, cells were permeabilized with 0.1% PBS-Triton X-100, quenched with 0.06% H2O2 in 0.1% PBS-Triton X-100, and probed with anti-phospho-MAPK antibodies (R&D Systems) followed by HRP-conjugated secondary antibody (Jackson Immunoresearch, West Grove, PA). Next, a 50 μM solution of the fluorescent substrate AmpliFlu Red (Sigma) was added and incubated at RT for 20 minutes. At the end of the incubation time, phosphorylation level of MAPK was determined by measuring fluorescence at 595 nm using SpectraMax M3 plate reader (Molecular Devices).
Cell lines: Human NSCLC cells NCI-H1975 and NCI-H1299, and tumor-derived pancreatic cancer cell lines Panc-1, MIA-PaCa-2, and BxPC3, were all purchased from American Type Culture Collection and grown in complete RPMI medium (BxPC3, NCI-H1975 and NCI-H1299) or DMEM-High Glucose (Panc1 and MIA-PaCa-2), supplemented with penicillin (100 U/mL), streptomycin (100 μg/mL), and 10% heat-inactivated FBS at 37° C. in a humidified incubator with 5% CO2.
(§1) Method: Cells were plated at 350000 cells/well density in a 12-well plate, allowed 3 hours to adhere to the plate, then starved in the appropriate medium in the presence of 0.5% FBS overnight. The small molecules to be tested were added to the cells in the final concentration of 10 μM in the presence of 0.3% DMSO for 6 hours incubation at 37° C. For IC50 value determination, serial dilutions of compounds were added to cells under the same conditions. Next, cells were stimulated with 1.5 ng/ml EGF for 15 minutes then cells were lysed with lysis buffer containing 1% Triton X-100, EDTA, and Halt™ Protease & Phosphatase Inhibitor Cocktail (Thermo Scientific). Protein concentration was assessed by BCA protein assay (Thermo Scientific). Phosphorylation level of MAPK was determined by western blot.
(§2) Western blot protocol: Equal amounts of protein (15-50 μg) were separated by SDS-PAGE and transferred to nitrocellulose membranes (Invitrogen by Thermo Fisher Scientific). The membrane was stained with Ponceau S Stain (Boston BioProducts) to verify uniform protein loading. Membranes were blocked with 10% milk and phosphorylation levels of MAPK were assessed by incubating overnight at 4° C. with anti-phospho-p44/42 (Thr202/Tyr204) antibody (Cell Signaling) followed by HRP-conjugated secondary antibody (Jackson Immunoresearch, West Grove, PA). Bands were incubated in Amersham ECL Prime Western Blotting Detection Reagent (GE Healthcare) and visualized using the ChemiDoc MP imaging system (Bio-Rad).

In another assay the test system is AKT phosphorylation. In words: Western AKT cell-based phosphorylation assay, PANC-1. The conditions noted are these: Homo sapiens. How it is done:
Human tumor-derived pancreatic cancer cell line Panc-1 was purchased from American Type Culture Collection and grown in complete DMEM-High Glucose supplemented with penicillin (100 U/mL), streptomycin (100 μg/mL), and 10% heat-inactivated FBS at 37° C. in a humidified incubator with 5% CO2.
as §1, with “C.” for “C. For IC50 value determination, serial dilutions of compounds were added to cells under the same conditions.”, “Akt” for “MAPK”
as §2, with “Akt” for “MAPK”, “anti-phospho-Akt (Ser473)” for “anti-phospho-p44/42 (Thr202/Tyr204)”

[1] abbreviates: 6 hours, EGF stimulation, PANC-1.

Structures are written as SMILES. Some results are limits rather than exact numbers.

Regarding `COc1cccc(-c2sc3nc(C4=NC(C)=NC4C)nc(N[C@@H]4CC[C@H](OC)C4)c3c2C)c1F` (some centres unmarked), the figures for the inhibition at 10 µM in the assay on MAPK phosphorylation (PANC-1 (Table 4C)) and with AKT phosphorylation (PANC-1 (Table 4C)) were 76 to 100% and 0%, respectively.
For `CO[C@H]1CC[C@@H](Nc2nc(-c3nccn3C)nc3sc(-c4cccc5[nH]ncc45)c(C)c23)C1` the same measures were 76 to 100% and 0%.
For `Cn1ccc(-c2sc3nc(-c4nccn4C)nc(N[C@@H]4CC[C@H](O)C4)c3c2-c2ccccc2)n1` (racemic) [drawing 509] the same measures were 26 to 50% and 0%.
With `COc1cccc(-c2csc3c(O)nc(-c4nccn4C)nc23)c1Cl` [drawing 386], the inhibition at 10 µM was 26 to 50% in the assay with MAPK phosphorylation (setting [1]) and 0% in the assay with AKT phosphorylation (setting [1]).
Consider `Cn1ccnc1-c1nc(O)c2scc(-c3ccccn3)c2n1` [drawing 387], for which the inhibition at 10 µM in the assay with MAPK phosphorylation (setting [1]) and in the assay with AKT phosphorylation (setting [1]) was 0% throughout.
Regarding `Oc1nc(-c2ncc3n2CCCC3)nc2c(-c3ccccn3)csc12` [drawing 388], the inhibition at 10 µM with MAPK phosphorylation (setting [1]) and with AKT phosphorylation (setting [1]) was 0% each time.
For `Oc1nc(-c2cn3ccccc3n2)nc2c(-c3ccccn3)csc12` [drawing 389], the values for the inhibition at 10 µM with MAPK phosphorylation (setting [1]) and with AKT phosphorylation (setting [1]) were 26 to 50% and 0%, respectively.
With `COCCn1ccnc1-c1nc(O)c2scc(-c3ccccn3)c2n1` [drawing 390], the inhibition at 10 µM with MAPK phosphorylation (setting [1]) was 51 to 75%; in the assay on AKT phosphorylation (setting [1]), 0%.
For `Cc1cc(Cn2ccnc2-c2nc(O)c3scc(-c4ccccn4)c3n2)on1` [drawing 391] the same measures were 0% and 0%.
For `Oc1nc(-c2nccn2Cc2ccccn2)nc2c(-c3ccccn3)csc12` [drawing 392] the same measures were 51 to 75% and 0%.
For the molecule `COc1cccc(Cn2ccnc2-c2nc(O)c3scc(-c4ccccn4)c3n2)c1` [drawing 393], the inhibition at 10 µM was 51 to 75% with MAPK phosphorylation (setting [1]) and 0% in the assay with AKT phosphorylation (setting [1]).
`Cc1cnc(-c2nc(O)c3scc(-c4ccccn4)c3n2)n1C` [drawing 394]: the inhibition at 10 µM in the assay on MAPK phosphorylation (setting [1]) and in the assay on AKT phosphorylation (setting [1]) was 0% throughout.
Turning to `Cc1cn(C)c(-c2nc(O)c3scc(-c4ccccn4)c3n2)n1` [drawing 395], the inhibition at 10 µM with MAPK phosphorylation (setting [1]) and with AKT phosphorylation (setting [1]) was 0% throughout.
For `Oc1nc(-c2ncc3ccccn23)nc2c(-c3ccccn3)csc12` [drawing 396], the inhibition at 10 µM in the assay on MAPK phosphorylation (setting [1]) and in the assay on AKT phosphorylation (setting [1]) was 0% throughout.
For `Oc1nc(-c2cn3cccnc3n2)nc2c(-c3ccccn3)csc12` [drawing 397], the inhibition at 10 µM in the assay on MAPK phosphorylation (setting [1]) and with AKT phosphorylation (setting [1]) was 0% each time.
Turning to `Oc1nc(-c2cn(-c3ccccc3)cn2)nc2c(-c3ccccn3)csc12` [drawing 398], the inhibition at 10 µM in the assay on MAPK phosphorylation (setting [1]) and with AKT phosphorylation (setting [1]) was 0% throughout.
With `COc1ccc(Cn2cnc(-c3nc(O)c4scc(-c5ccccn5)c4n3)c2)cc1` [drawing 399], the inhibition at 10 µM with MAPK phosphorylation (setting [1]) is 51 to 75%; in the assay on AKT phosphorylation (setting [1]), 0%.
As for `COCCCNc1nc(-c2nccn2C)nc2sc(-c3ccn(C)n3)c(-c3ccccc3)c12` [drawing 400], the values for the inhibition at 10 µM in the assay on MAPK phosphorylation (setting [1]) and with AKT phosphorylation (setting [1]) were 26 to 50% and 0%, respectively.
For `COCCCN(C)c1nc(-c2nccn2C)nc2sc(-c3ccn(C)n3)c(-c3ccccc3)c12` [drawing 401] the same measures were 51 to 75% and 0%.
For `COCC(C)Nc1nc(-c2nccn2C)nc2sc(-c3ccn(C)n3)c(-c3ccccc3)c12` (centres unmarked) [drawing 402] the same measures were 51 to 75% and 0%.
For `COC1CCN(c2nc(-c3nccn3C)nc3sc(-c4ccn(C)n4)c(-c4ccccc4)c23)C1` (centres unmarked) [drawing 403] the same measures were 1 to 25% and 0%.
Consider `COc1cccc(-c2sc3nc(-c4nccn4C)nc(N4CCC(OC)C4)c3c2-c2ccccc2)c1F` (centres unmarked) [drawing 473], for which the IC50 in the assay on MAPK phosphorylation (PANC-1) was > 1000 nM.
Still for that read-out and setting: in the case of `CO[C@H]1CC[C@@H](Nc2nc(-c3nccn3C)nc3sc(-c4ccn(C(C)C)n4)c(-c4ccccc4)c23)C1` [drawing 475] it was > 1000 nM.

These data come from patent publication US20250296938A1, “Compounds that Interact with the Ras Superfamily for the Treatment of Cancers, Inflammatory Diseases, Rasopathies, and Fibrotic Disease” (SHY Therapeutics, LLC, priority 2018, published 2025).
